Patent US20040076622A1, “Local production and/or delivery of anti-cancer agents by stromal cell precursors” (Board of Regents, The University of Texas System, priority 2002, published 2004)
Like-named read-outs stand apart in the source and are kept apart here.

Columns and labels:
KBM5 cells = assay: Growth inhibition of KBM5 cells by STI and IFN-α; type: cell-based; conditions: ST1571 0.5, 1.0, 2.0 tmol; IFNα 2,000, 5,000, 10,000 U
Excerpt: (§1) The effects of IFNA and ST1571 on STI-resistant KBM5 cells were studied.

KBM5-STI cells = assay: Growth inhibition of STI-resistant KBM5 cells by STI and IFN-α; type: cell-based; conditions: for Growth inhibition of KBM5-STI cells: ST1571 0.5, 1.0, 2.0 tmol, IFNα 2,000, 5,000, 10,000 U
Excerpt: as §1

CML = conditions: cited from earlier work
melanoma = conditions: cited from earlier work
MFP-regulated promoter = assay: MFP dependent induction of IFN-α from AAV-infected MSC (ELISA); type: cell-based, human; conditions: MSC infected with MFP regulated AAV
Experimental: Regulated expression from a drug inducible AAV vector. An AAV construct was used that expressed IFN-α under the control of a MFP-regulated promoter, to infect normal donor MSC in vitro. Briefly, MSC were infected with 10^3 GE of AAV-IFN-α and 10^3 GE of AAV-gal4prlMFP, and expanded for 10 additional days. These cells were subcultured into 12 well dished were MFP (dissolved in 0.1% ETOH) or solvent carrier was added at the concentrations noted. MSC infected w/ the MFP regulated AAV, express IFN-α only after 18 h exposure to MFP (FIG. 4A). Three drug concentrations were tested, each dose was 10-fold less than the previous one, and with the initial dose of 10^−7 M being 3 logs less than the dose commonly given for chemical abortions in humans. Of note is that a one-time addition of MFP results in a prolonged 8-10 day expression of IFN-α, peaking at 4-5 days after drug addition. […] Ten days after IFN-α level reached background activity we waited 3 additional days and added another dose of 10^-8 M MFP. […]
Exemplary methods for harvesting, culture, and infection of MSC. […] Forty-eight hours later cells are analyzed for βgal expression using X-gal histochemical staining or analysis with FACS utilizing CM-FDG, as in Marini et al. (1999). […] Six to 24 h later, supernatant is collected and analyzed via Quantikine IFN-α ELISA (Biosource International Inc Camarillio Calif.).

[1] = Systemic expression of IFN-α after intramuscular injection of AAV in mice (ELISA); type: in vivo, mouse; conditions: one application of MFP given IP, mice injected with inducible AAVs
Experimental: In vivo testing. To initiate a in vivo culture model of CML, two BCR-ABL+ cell lines, the K562 (which grow extramedullary in nu/nu mice) or BV173 (which grows intra bone marrow in BalbC/nu mice) were injected into respective mice. […] Utilizing the BV173 cell line we tested three cell doses and found one million BV173 cells were sufficient to kill the mice within 45 days, whereas 5×10^5 BV173 cells allowed the mice to survive for 60+ days with one mice still surviving. […] As an alternative to using MSCs as a cell based therapy, the AAV vectors may be directly inject into the muscle, thereby allowing secretion of IFN-α systemically. Evaluation of this route of delivery was performed by an intramuscular injection of […] AAV-CMV-IFN-α or 5×10^10 GE of AAV-Gal4hPRL-65AD and 5×10^10 GE of AAV-G5E-IFN-α into the quadriceps of mice. Mice were bled weekly and the serum was analyzed for IFN-α expression using the Biosource ELISA kit. As shown in FIG. 9 circulating levels of hIFN-α was detected in the peripheral blood, and more importantly, it was identified over the high background level seen in these nu/nu animals. […] Using this mouse model circulating levels of human IFN-α were detected. Human MSC may also be detected using molecular, fluorescent, and immunohistochemical approaches.

MSC = assay: Effect of MDA7 on growth of the MSC; type: cell-based; conditions: MSC growth not affected
Experimental: MSC were infected with a β-gal MDA7 adenovirus provided by Dr. Sunil Chada (Introgen, Houston, Tex.) at 50, 500, 5,000, and 25,000 MOI. All experiments were performed in duplicate supernatant from control and MDA7-MSC was obtained and added to KBM5 and KBM5-STI cells and assayed at 24 and 72 hours. Co-cultures of β-gal MDA7-MSC and control MSC with KBM5 (STI-sensitive) and KBM5-STI (STI-resistant) cells were also performed, with the MSC growing to near-confluency and 0.125×10^6 cells/mL plated on the MSC in 12 well plates. All wells were assayed at 24 and 72 hours.

[2] = patients with chronic phase CML

## IFNα
KBM5 cells
  Growth inhibition of KBM5 cells: pronounced growth inhibitory effects
KBM5-STI cells
  Growth inhibition of KBM5-STI cells: but not on KBM5-STI cells
KBM5-STI cells; in vitro, KBM5 and KBM5-STI cells
  Enhancement of the STI effect by IFNα: did not enhance the STI effect
CML; CML patients at 5 years
  CCR's lost: 42%
CML; CML patients at 8 years
  CCR's lost: 50%
CML; patients who received INFα for CML
  Patients able to maintain high concentrations: less than 30%
melanoma; advanced melanoma
  Overall response rate: 20%
melanoma; high risk melanoma
  Improvement in the fraction of patients who are disease-free: 42%

## CC#C[C@]1(O)CC[C@H]2[C@@H]3CCC4=CC(=O)CCC4=C3[C@@H](c3ccc(N(C)C)cc3)C[C@@]21C [MFP, mifpristone]
MFP-regulated promoter
  Time of peak IFN-α expression after drug addition: 4 to 5 days
MFP-regulated promoter; 18 h exposure
  Duration of IFN-α expression after a one-time addition of MFP: 8 to 10 days
[1]
  Period over which the single peak of IFN-α activity decays: 7 days

## Cc1ccc(NC(=O)c2ccc(CN3CCN(C)CC3)cc2)cc1Nc1nccc(-c2cccnc2)n1 [ST1571]
KBM5 cells
  Growth inhibition of KBM5 cells: highly sensitive
KBM5-STI cells
  Growth inhibition of KBM5-STI cells: resistant
CML; [2]
  Complete cytogenetic remissions: 95%
  Hematological remission: > 90%
  RT-PCR negativity: 8%

B1: MDA7: melanoma differentiation associated protein 7, classified as interleukin-24 (protein, UniProt Q13007 52-206, looked up)
Interleukin-24: QEFHFGPCQVKGVVPQKLWEAFWAVKDTMQAQDNITSARLLQQEVLQNVSDAESCYLVHTLLEFYLKTVFKNYHNRTVEVRTLKSFSTLANNFVLIVSQLQPSQENEMFSIRDSAHRRFLLFRRAFKQLDVEAALTKALGEVDILLTWMQKFYKL
MSC
  Toxic effects on MSC: no toxic effects
